Laboratory results reported in publication PMC8658016, “Identification of New Compounds with Anticonvulsant and Antinociceptive Properties in a Group of 3-substituted (2,5-dioxo-pyrrolidin-1-yl)(phenyl)-Acetamides” (International Journal of Molecular Sciences, 2021).

Key:
[1] = tested on: mice; assay: Oxaliplatin-induced peripheral neuropathy, tactile allodynia (von Frey); assay type: in vivo, mouse; conditions: for pain sensitivity threshold (von Frey), early phase / pain threshold as % of the baseline value, early phase: 3 h after oxaliplatin; for pain threshold (von Frey), late phase / pain threshold as % of the baseline value, late phase: 7 days after oxaliplatin
From the text: To investigate the analgesic activity of compound 14 in neuropathic pain, we used the OXPT-induced peripheral neuropathy model. OXPT directly affects neurons, which results in the upregulation of TRPM8 and TRPA1 and the downregulation of Kv4.3 neuronal channels. Moreover, OXPT forms adduct with mitochondrial DNA and, in this way, change the expression of membrane-associated protein such as channels. All these effects finally lead to peripheral and central sensitization. The neuropathy manifests as the decrease in the pain threshold and can be observed in hours or in days after OXPT administration, which is called the early or late phase of neuropathic pain, respectively. We tested the influence of compound 14 on tactile allodynia using the von Frey method 3 h and 7 days after the induction of neuropathy. In the early phase, we observed a significant decrease in the value of mean force that caused a paw withdrawal reaction (1.84 ± 0.05 g) (60.9% of the baseline) compared to non-treated animals (3.02 ± 0.07 g) (the baseline). In the late phase, the pain threshold was 1.97 ± 0.07 (65.2% of the baseline). The observed tactile allodynia was attenuated by compound 14, which elevated the pain sensitivity threshold in the early phase in a dose-dependent manner. (Figure 7) (2.61 ± 0.08 g, 2.94 ± 0.04 g, and 3.05 ± 0.08 g at the dose of 40 mg/kg, 60 mg/kg, and 80 mg/kg, respectively, which corresponded to 86.4%, 97.3%, and 100.9% of the baseline value). In the late phase, the pain threshold values were 2.45 ± 0.06 g, 2.88 ± 0.04 g, and 2.98 ± 0.06 g, which corresponded to 81.1%, 95.3%, and 98.6% of the baseline value.
The experiments were conducted on adult male Albino Swiss mice (CD-1, 18–25 g) and male Wistar rats (Krf:(WI) WU), 180–250 g) as described previously. The minimum number of animals used needed to obtain definite and normally distributed results with the utilized test. Behavioral measures were scored by trained observers, which were blind to experimental conditions. The following devices were used in the experiments: Analgesy Meter (37215, Ugo Basile), Plantar Test Apparatus (EFV5, Commat Ltd., Turkey), Plethysmometer (Plethysmometer 7140, Ugo Basile), Electronic von Frey unit (BIOSEB, France). All procedures were performed according to the European Union Directive of 22 September 2010 (2010/63/EU) and approved by the Local Ethics Committee for Experiments on Animals in Krakow, Poland (resolution no. 105/2016).
Figure 7 Antiallodynic effects of compound 14 in the tactile allodynia evaluated in the von Frey test in oxaliplatin-induced peripheral neuropathy. Statistical analysis: repeated measures analysis of variance (ANOVA), followed by Dunnett’s post hoc comparison: *** p < 0.001, **** p < 0.0001 (GraphPad Prism 8.0.1). Results obtained before the treatment with oxaliplatin (the gray bar) and after the treatment with oxaliplatin and the compound (post compound 14, the red bars) were compared to the results obtained after the treatment with oxaliplatin and before the administration of the compound (pre compound 14; the white bars).

[2] = tested on: mice; assay: Psychomotor 6 Hz (32 mA) seizure test; assay type: in vivo, mouse; conditions: mice i.p.
[3] = tested on: fast voltage-gated sodium currents in rat prefrontal cortex pyramidal neurons; assay: Patch-clamp, fast voltage-gated sodium currents; assay type: cell-based
From the text: Consequently, we determined the influence of compound 14 on the fast activating and fast inactivating voltage-gated sodium currents in rat prefrontal cortex pyramidal neurons using the patch-clamp technique. Maximal currents were evoked by rectangular voltage steps to 0 mV from a physiological holding potential of -65 mV. After recording a stable control, compound 14 was applied to the whole bath for three minutes. […] Therefore, it was very likely that the potent inhibition of sodium currents by compound 14 similar to compound II was one of the mechanisms providing a similar level of anticonvulsant activity. Moreover, the influence of several additional concentrations of compound 14 on voltage-gated sodium currents were tested to confirm the dose–response relationship. In sum, the following concentrations were applied; 0.01 µM, 0.1 µM, 1 µM, 10 µM, and the results obtained were as follows: 0.95 ± 0.05 (p > 0.05, n = 5), 0.84 ± 0.03 (p < 0.05, n = 5), 0.82 ± 0.05 (p < 0.01, n = 5), and 0.77 ± 0.02 (p < 0.01, n = 5), respectively (Figure 9D, currents were normalized to control currents). It is worthy of note that the significant inhibitory effect was observed starting from the concentration of 0.1 µM, whereas no activity was detected at 0.01 µM. Furthermore, a clear dose–response relationship was visible. All the aforementioned results certainly supporting the inhibition of fast voltage-gated sodium currents, seemed to be crucial for the antiseizure activity of compound 14. The methodology of slice preparation, slice preincubation, and patch-clamp technique was the same as in our previous study. In this study, however, we used different recording solutions. The composition of pipette solution was (in mM) CsF (110), NaCl (7), EGTA (3), HEPES-Cl (10), MgCl2 (2), and Na2ATP (4) at pH 7,4. The composition of extracellular solution was (in mM) NaCl (30), choline chloride (90), TEA-Cl (30), CaCl2 (2), MgCl2 (2), glucose (15), HEPES (10), LaCl3 (0.001), and CdCl2 (0.4) at pH 7.4. Compound 14 was tested at concentration of 1 µM.  Figure 9 The influence of compound 14 on fast, voltage-gated sodium current. (A) The influence of tested compound on sodium current is shown on an example neuron. Current traces were evoked once every ten seconds by a rectangular voltage step. […] (B) Example sodium current recordings in control (black trace), after application of compound 14 (1 µM) (blue trace) and after wash-out (red trace). (C) Averaged normalized maximal current amplitudes in control, in the presence of compound 14 (1 µM) and after wash-out. (D) Averaged normalized maximal current amplitudes in control and in the presence of different concentrations of compound 14 (0.01 µM, 0.1 µM, 1 µM, and 10 µM). Statistical significance was analyzed by Graph Pad Prism 8.0.1 software using Tukey post hoc test (C) and Students’ t-test (D). Statistical significance-compared control: * p < 0.05, ** p < 0.01.

CN(C)C1CC(=O)N(C(C(=O)N2CCN(c3cccc(C(F)(F)F)c3)CC2)c2ccccc2)C1=O.Cl (stereo not drawn) [Compound 14, 3-(Dimethylamino)-1-(2-oxo-1-phenyl-2-(4-(3-(trifluoromethyl)phenyl)-piperazin-1-yl)ethyl)pyrrolidine-2,5-dione hydrochloride]
melting point: 157.8 to 159.2 °C
pain sensitivity threshold (von Frey), early phase ([1]; 40 mg/kg): 2.61 ± 0.08 g
pain threshold as % of the baseline value, early phase ([1]; 40 mg/kg): 86.4%
pain threshold (von Frey), late phase ([1]; 40 mg/kg): 2.45 ± 0.06 g
pain threshold as % of the baseline value, late phase ([1]; 40 mg/kg): 81.1%
pain sensitivity threshold (von Frey), early phase ([1]; 60 mg/kg): 2.94 ± 0.04 g
pain threshold as % of the baseline value, early phase ([1]; 60 mg/kg): 97.3%
pain threshold (von Frey), late phase ([1]; 60 mg/kg): 2.88 ± 0.04 g
pain threshold as % of the baseline value, late phase ([1]; 60 mg/kg): 95.3%
pain sensitivity threshold (von Frey), early phase ([1]; 80 mg/kg): 3.05 ± 0.08 g
pain threshold as % of the baseline value, early phase ([1]; 80 mg/kg): 100.9%
pain threshold (von Frey), late phase ([1]; 80 mg/kg): 2.98 ± 0.06 g
pain threshold as % of the baseline value, late phase ([1]; 80 mg/kg): 98.6%
ED50 ([2]; Mus musculus, ip, 95% confidence interval in parentheses): 31.3 mg/kg
6 Hz (32 mA) screening: number of mice protected / number of mice tested ([2]; 100 mg/kg, 0.5 h): 3/4
protection in the 6 Hz (32 mA) test ([2]; 100 mg/kg, 0.5 h): 75%
maximal sodium current amplitude normalized to control (1.0) ([3]; 0.01 µM, p > 0.05, n = 5): 0.95 ± 0.05
maximal sodium current amplitude normalized to control (1.0) ([3]; 0.1 µM, p < 0.05, n = 5): 0.84 ± 0.03
maximal sodium current amplitude normalized to control (1.0) ([3]; 1 µM, p < 0.01, n = 5): 0.82 ± 0.05
maximal sodium current amplitude normalized to control (1.0) ([3]; 10 µM, p < 0.01, n = 5): 0.77 ± 0.02
maximal sodium current amplitude normalized to control, after drug wash-out ([3]; after application of 1 µM): 0.92 ± 0.02
